From US11413278B2, “Compounds and methods for promoting stress resistance” (priority 2015, dated 2022)
Where two headings read alike, the source gives them in different places.

Tests used:
[1] = Summary score for characterization of 38 core set hits; conditions: for D = Triple resistant: 2-point score, multiplex resistance (cadmium, MMS, H2O2); for S = Sum of Negative scores: human; for C = H2O2- & Cd-resistant: score, resistance to both H2O2 and cadmium
Procedure, shortened: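 Composite score. 2 pts each: multiplex stress resistance, FOXO3/NRF2 activation, mTOR down-regulation. Worm lifespan (4–6 independent trials): 0 = no obvious effect, 1 = extension in 2 trials, 2 = extension in >2 trials. −1 for DNA damage and/or cytotoxicity in cultured human cells.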

[2] = system: FOXO3; test: qPCR analysis of FOXO3-regulated genes; format: cell-based, human; conditions: for fold induction at 10 µM: Homo sapiens; for K = Sestrin induction: score; for Potential FOXO3 Activation (>=2 target genes induced, by >=1.5-fold): Assay 11(n)
Procedure, shortened: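 WI-38 cells treated with compound at 10 μM for 24 h, followed by Cells-to-Ct RT-qPCR of FOXO3 target genes normalised to B2M, PPIA and GAPDH. FOXO3 or NRF2 dependence tested by prior 10 nM siRNA knockdown (36 h transfection, compound added ~24 h after replating).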

[3] = system: WI-38 cells; test: CdCl2 (cadmium) resistance assay; format: cell-based, human; conditions: for fold induction at 10 µM: Homo sapiens, 12 h, normalized ATP measurement; for Assay 4: H2O2- & Cd-resistant / Assay 2: Cadmium-resistant: YES/NO; for Assay 2: Cadmium-resistant: * indicates partial
Procedure, shortened: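 WI-38 cells were given compounds at five final concentrations (0.25–20 μM) in triplicate, followed by cadmium or MMS for 12 h. For MMS, medium was switched from OptiMEM+10% FBS to serum-free DMEM+2% BSA when compounds were added, 24 h before stressor. Two independent assays were run, analysed by global variance t-test.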

[4] = 24 h, Assay 10(m), at 10 uM, qPCR, read-out: Induction of FOXO3-regulated genes: GADD45A normalized fold-change
[5] = 10 μM, 24 hrs, WI-38 cells, qPCR, normalized to B2M, n = 4, read-out: GADD45A expression, normalized fold change (FOXO3-regulated gene)
[6] = WI-38 cells, 10 μM, 24 hrs, n=4, qPCR normalized by B2M, read-out: DDB1 Normalized fold change
[7] = WI-38 cells, 10 μM, 24 hrs, n=4, qPCR normalized by B2M, read-out: GADD45A Normalized fold change
[8] = WI-38 cells, 10 μM, 24 hrs, n=4, qPCR normalized by B2M, read-out: SESN1 Normalized fold change
[9] = fold change, qPCR, WI-38 cells, 10 μM, 24 hrs, read-out: Summary of effects on FOXO3-regulated genes: GADD45A
[10] = qPCR, WI-38 cells, 10 μM, n=4, 24 hrs, normalized by B2M, read-out: CAT Normalized fold change
[11] = qPCR, WI-38 cells, 10 μM, n=4, 24 hrs, normalized by B2M, read-out: SOD2 Normalized fold change
[12] = qPCR, WI-38 cells, 10 μM, n=4, 24 hrs, normalized by B2M, read-out: TXNIP Normalized fold change
[13] = Exp. 1, WI-38 cells, read-out: Exp. 1, under Cd2Cl2 stress treatment, at 10 uM (fold change)
[14] = Exp. 2, WI-38 cells, read-out: Exp. 2, under Cd2Cl2 stress treatment, at 10 uM (fold change)
[15] = WI-38 cells, 10 μM, both stressors
[16] = score in summary of 38 core set hits
[17] = 24 h, Assay 10(m), at 10 uM, qPCR, read-out: Induction of FOXO3-regulated genes: DDB1 normalized fold-change
[18] = 10 μM, 24 hrs, WI-38 cells, qPCR, normalized to B2M, n = 4, read-out: DDB1 expression, normalized fold change (FOXO3-regulated gene)
[19] = fold change, qPCR, WI-38 cells, 10 μM, 24 hrs, read-out: Summary of effects on FOXO3-regulated genes: DDB1
[20] = 24 h, Assay 10(m), at 10 uM, qPCR, read-out: Induction of FOXO3-regulated genes: TXNIP normalized fold-change
[21] = 10 μM, 24 hrs, WI-38 cells, qPCR, normalized to B2M, n = 4, read-out: TXNIP expression, normalized fold change (FOXO3-regulated gene)
[22] = fold change, qPCR, WI-38 cells, 10 μM, 24 hrs, read-out: Summary of effects on FOXO3-regulated genes: TXNIP
[23] = 10 μM, 24 hrs, WI-38 cells, qPCR, normalized to B2M, n = 4
[24] = 24 h, Assay 10(m), at 10 uM, qPCR, read-out: Induction of FOXO3-regulated genes: SOD2 normalized fold-change
[25] = fold change, qPCR, WI-38 cells, 10 μM, 24 hrs

Structure (SMILES)	D = Triple resistant [1]	S = Sum of Negative scores [1]	C = H2O2- & Cd-resistant [1]	E = Potential FOXO3 Activation ([2]; 2-point score)	fold induction at 10 µM [2, 5]	fold induction at 10 µM [2, 6]	fold induction at 10 µM [2, 7]	fold induction at 10 µM [2, 8]	fold induction at 10 µM [2, 9]	fold induction at 10 µM [2, 10]	fold induction at 10 µM [2, 11]	fold induction at 10 µM [2, 12]	K = Sestrin induction [2]	E = Potential FOXO3 Activation ([2]; summary score)	fold induction at 10 µM [3, 13]	fold induction at 10 µM [3, 14]	Assay 4: H2O2- & Cd-resistant [3]	A = Cadmium resistant [3, 16]	A = Cadmium resistant ([3]; summary score)	C = H2O2- & Cd-resistant ([3]; summary score)	other results
Cc1cc(N)n(-c2ccccc2C(=O)O)n1 [Gr-6A]	2	0	1	0	0.79	1.05	0.787	1.18	0.79	1.2	0.868	1.14	0	0	2.46	2.36	YES	1	1	1	fold induction at 10 µM [2, 4]: 0.79; CdCl2-resistant [3]: YES; H2O2- & CdCl2-resistant [3]: YES; CdCl2-resistant ([3]; WI-38 cells, 10 μM): YES; H2O2- & CdCl2-resistant [3, 15]: YES; Assay 2: Cadmium-resistant [3]: YES
O=C(/C=C/c1cn(-c2ccccc2)nc1-c1cccnc1)c1ccccc1 [Gr-6B]	0	0	1	0		1.19	1.26	1.25		1.11	1.14	0.861	0	0	5.07	2.65	YES	1	1	1	fold induction at 10 µM [2, 17]: 1.19; fold induction at 10 µM [2, 18]: 1.19; fold induction at 10 µM [2, 19]: 1.19; CdCl2-resistant [3]: YES; H2O2- & CdCl2-resistant [3]: YES; CdCl2-resistant ([3]; WI-38 cells, 10 μM): YES; H2O2- & CdCl2-resistant [3, 15]: YES; Assay 2: Cadmium-resistant [3]: YES
N=C1S/C(=C\c2cn(-c3ccccc3)nc2-c2cccs2)C(=O)N1c1nccs1 [Gr-6C]	0	2	0	0	2.17	1.22	2.17	1.42	2.17	1.13	1.01	0.568	0	0				0	0	0	fold induction at 10 µM ([2]; 24 h, Assay 10(m), at 10 uM, qPCR, read-out: Induction of FOXO3-regulated genes: SESN1 normalized fold-change): 1.42; fold induction at 10 µM [2, 20]: 0.57; fold induction at 10 µM ([2]; 10 μM, 24 hrs, WI-38 cells, qPCR, normalized to B2M, n = 4, read-out: SESN1 expression, normalized fold change (FOXO3-regulated gene)): 1.42; fold induction at 10 µM [2, 21]: 0.57; fold induction at 10 µM ([2]; fold change, qPCR, WI-38 cells, 10 μM, 24 hrs, read-out: Summary of effects on FOXO3-regulated genes: SESN1): 1.42; fold induction at 10 µM [2, 22]: 0.57
O=C(NCc1cccnc1)/C(=C\c1cccc(Oc2ccccc2)c1)S(=O)(=O)c1ccccc1 [Gr-7A]	0	1	0	2	1.91	0.979	1.91	1.14	1.91	1.15	1.78	0.12	0	2	0.07	0.14	YES	0	1	1	SOD2 expression, normalized fold change (FOXO3-regulated gene) [2, 23]: SOD2 1.78, fold; Potential FOXO3 Activation (>=2 target genes induced, by >=1.5-fold) [2]: YES; fold induction at 10 µM [2, 4]: 1.91; fold induction at 10 µM [2, 24]: 1.78; fold induction at 10 µM [2, 20]: 0.12; fold induction at 10 µM [2, 21]: 0.12; fold induction at 10 µM [2, 22]: 0.12; Summary of effects on FOXO3-regulated genes: SOD2 [2, 25]: SOD2 1.78,; Assay 2: Cadmium-resistant [3]: YES
O=C(NCc1cccnc1)/C(=C\c1ccc(Br)cc1)S(=O)(=O)c1ccccc1 [Gr-7B]	0	1	0	0	2.07	1.31	2.07	0.952	2.07	1.13	1.33	0.262	0	0	0.12	0.26	YES	0	1	1	fold induction at 10 µM [2, 4]: 2.07; fold induction at 10 µM [2, 20]: 0.26; fold induction at 10 µM [2, 21]: 0.26; fold induction at 10 µM [2, 22]: 0.26; Assay 2: Cadmium-resistant [3]: YES
O=C(NCc1cccnc1)/C(=C/c1ccc(-c2ccc(Cl)cc2)o1)S(=O)(=O)c1ccccc1 [Gr-7C]	0	1	0	2	10.9	1.36	10.9	1.28	10.9	1.43	2.68	0.068	0	2	1.31	0.97	YES	0	1	1	SOD2 expression, normalized fold change (FOXO3-regulated gene) [2, 23]: SOD2 2.67, fold; Potential FOXO3 Activation (>=2 target genes induced, by >=1.5-fold) [2]: YES; fold induction at 10 µM ([2]; 24 h, Assay 10(m), at 10 uM, qPCR, read-out: Induction of FOXO3-regulated genes: CAT normalized fold-change): 1.43; fold induction at 10 µM [2, 17]: 1.36; fold induction at 10 µM [2, 4]: 10.9; fold induction at 10 µM [2, 24]: 2.67; fold induction at 10 µM [2, 20]: 0.07; fold induction at 10 µM ([2]; 10 μM, 24 hrs, WI-38 cells, qPCR, normalized to B2M, n = 4, read-out: CAT expression, normalized fold change (FOXO3-regulated gene)): 1.43; fold induction at 10 µM [2, 18]: 1.36; fold induction at 10 µM [2, 21]: 0.07; fold induction at 10 µM ([2]; fold change, qPCR, WI-38 cells, 10 μM, 24 hrs, read-out: Summary of effects on FOXO3-regulated genes: CAT): 1.43; fold induction at 10 µM [2, 19]: 1.36; fold induction at 10 µM [2, 22]: 0.07; Summary of effects on FOXO3-regulated genes: SOD2 [2, 25]: SOD2 2.67,; Assay 2: Cadmium-resistant [3]: YES
